Results reported in patent publication US12275685B2, “Oligo-benzamide analogs and their use in cancer treatment” (Board of Regents, The University of Texas System, priority 2018, dated 2025).
pIC50: −log10 of the molar value. Where two headings read alike, the source gives them in different places.

What was measured:
[1] = system: estrogen receptor-positive breast cancer; assay: Growth inhibition of ER-positive breast cancer; format: cell-based
[2] = system: BC cells expressing MT-ERα (MCF-7, ZR-75, T47-D); assay: Cell titer glo antiproliferative assay in MT-ERα BC cells; format: cell-based
Source text: (§1) FIG. 52: Comparative efficacy of TX-542 and SERDs in BC cells expressing WT and/or MT ERα: Using CRISPR-Cas9, both copies of WT ERα genes were knocked out in ZR-75 and T47-D, while only one copy of WT Era was knocked out in MCF-7 cells. Following knockout of WT ERα clones with stable expression of either Y537S ERα MT or the D538G ERα MT were selected. […] ERα-negative TNBC cells (SUM-159 and MDA-MB-231) were used as controls. Dose response curves were generated for ERX-11, TX-542 and SERDs using cell titer glo assays. IC50 values for each cell line and drug were calculated and tabulated. Tam=tamoxifen, ICI=fulvestrant, GDC-0810=Genentech SERD, AZD-9496 Astra Zeneca SERD, RAD-1901=Radius SERD, Palbo=Palbociclib. IC50 values<50 nM are shown in red.
(§2) TX-542. TX-542 was potent (IC50˜20-50 nM) as an antiproliferative agent against expressing MT-ERα, both in genetically modified MCF-7 cells with one WT-ERα allele and one MT-ERα allele introduced by CRISPR and genetically modified ZR-75 or T47-D cells in which both copies of WT-ERα alleles were replaced using CRISPR with MT-ERα. TX-542 had no activity against ER-null (SUM-159 or MDA-MB-231 cells) or non-tumorigenic breast epithelial cells, such as human mammary epithelial cells (HMEC). […] In addition, these agents are not able to consistently target all the MT-ERα forms in distinct genetic contexts, as shown in FIG. 52 and as reported by others.

[3] = system: ER-null (SUM-159 or MDA-MB-231 cells); assay: Antiproliferative assay in ER-null cells; format: cell-based
Source text: as §1, §2

[4] = system: human mammary epithelial cells (HMEC); assay: Antiproliferative assay of TX-542 in HMEC; format: cell-based
Protocol: as §2

Protein binding = format: in vitro ADME
[5] = system: BC cells expressing WT-ERα and MT-ERα; assay: Clonogenic assay; format: cell-based; conditions: 100 nM
Protocol: FIG. 53: Effect of 100 nM TX-542 on clonogenic survival of WT-ERα and MT-ERα BC cell lines.
(§3) The 200 nM dose for these drugs reflects the level at which each of these drugs has a significant effect on spheroid formation in the MCF-7 WT-ERa cells. Taken together, these studies indicate that TX-542 has significant activity against both WT-ERα and MT-ERα driven ERα+ BC cell lines and is a worthwhile candidate for further study.

MCF-7 MT-ERα Y537S cells = format: cell-based; conditions: 200 nM
[6] = system: MT-ERα expressing BC cells; assay: Apoptosis by annexin staining; format: cell-based; conditions: within 72 h after treatment, 200 nM
Protocol: FIG. 55: Effect of 200 nM TX-542 on apoptosis of MT-ERα expressing BC cells.
as §3

[7] = system: MCF-7 MT-ERα Y537S and D538G cells; format: cell-based; conditions: comparators at 200 nM in MCF-7 MT-ERα Y537S cells
[8] = Pharmacokinetic profile of TX-542; format: in vivo
Protocol: FIG. 58: PK properties of TX-542 indicate a half-life in plasma of 8 h and accumulation over time in tumor.
(§4) To establish the pharmacokinetic (PK) profile of TX-542, the inventors worked with the UTSW preclinical pharmacology core to characterize pharmacologic properties of TX-542 (FIG. 58). These studies indicated an 8-h half-life of TX-542 in the plasma, with drug detectable in both the liver and kidney after intraperitoneal (i.p.) administration.

[9] = system: WT-ERα ZR-75 or MT-ERα MCF-7 xenografts; assay: TX-542 in ERα BC xenografts; format: in vivo, nude mice
Protocol: FIGS. 59A-B: MCF-7 MT-ERa D538G and Y537S xenograft tumors were injected into the mammary fat pad of nude mice. Once the tumors were established (100 mm^3), treatment with either vehicle or TX-542 (10 mg/kg/ip) was commenced and their effect on tumor growth and mice body weights were graphed (n=9 per group).
as §4

ERα [10] = format: cell-based; conditions: MT-ERα, 200 nM
MT-ERα [11] = assay: ERE luciferase reporter gene assay, TX-542; format: cell-based; conditions: minimal promoter with three copies of ERE
MT-ERα [12] = assay: ChIP of MT-ERα DNA binding, TX-542; format: cell-based
[13] = system: BC cells expressing MT-ERα; assay: Boyden chamber invasion assay; format: cell-based
Source text: FIG. 62: Effect of TX-542 on invasiveness of BC cells expressing Erα mutants in a Boyden chamber assay.
(§5) Since MT-ERα is primarily expressed in metastases, the inventors used metastatic models to evaluate effect of TX-542 on the development and progression of metastasis.

[14] = system: MT-ERα expressing BC metastasis; assay: Metastatic models (intracardiac, intratibial injection); format: in vivo, mice
Protocol: FIG. 63: Following intracardiac injection of luciferase-tagged ZR-75 MT-ERα Y537S tumors, mice are imaged five at a time under 2% isoflurane gas anesthesia. Each mouse is injected with D-Luciferin and imaged 10-15 minutes after the injection. BLI signal is quantified in regions of interest (ROIs) drawn around tumors, specific areas (for example cranial, thoracic or abdominal), whole body or tissues ex vivo and the signal is expressed as photons per second, representing the flux radiating omni-directionally from the user-defined region. Images are analyzed using Living Image 4.3.1 (PerkinElmer, Waltham, MA) software. Once the tumors were established (40,000 luminescene counts at 30 seconds exposure), mice were treated either with vehicle or TX-542. […] Relative luminescence counts are mapped (middle panel). Mice were sacrificed once symptomatic and the survival curves for vehicle treated (black) or TX-542 treated (red) are graphed (right panel) (n=6 in each group).
Once tumors were established, daily treatment of mice with either vehicle or TX-542 (10 mg/kg/ip) were performed. Results are shown and graphed (n=6).
as §5

ZR-75 MT-ERα cells = assay: Colony formation, ZR-75 MT-ERα; format: cell-based
Protocol: as §3

ERα [15] = target: ERα (Homo sapiens, UniProt P03372); format: cell-based; conditions: WT-ERα
Sequence of ERα (Homo sapiens, UniProt P03372) (P03372 whole entry): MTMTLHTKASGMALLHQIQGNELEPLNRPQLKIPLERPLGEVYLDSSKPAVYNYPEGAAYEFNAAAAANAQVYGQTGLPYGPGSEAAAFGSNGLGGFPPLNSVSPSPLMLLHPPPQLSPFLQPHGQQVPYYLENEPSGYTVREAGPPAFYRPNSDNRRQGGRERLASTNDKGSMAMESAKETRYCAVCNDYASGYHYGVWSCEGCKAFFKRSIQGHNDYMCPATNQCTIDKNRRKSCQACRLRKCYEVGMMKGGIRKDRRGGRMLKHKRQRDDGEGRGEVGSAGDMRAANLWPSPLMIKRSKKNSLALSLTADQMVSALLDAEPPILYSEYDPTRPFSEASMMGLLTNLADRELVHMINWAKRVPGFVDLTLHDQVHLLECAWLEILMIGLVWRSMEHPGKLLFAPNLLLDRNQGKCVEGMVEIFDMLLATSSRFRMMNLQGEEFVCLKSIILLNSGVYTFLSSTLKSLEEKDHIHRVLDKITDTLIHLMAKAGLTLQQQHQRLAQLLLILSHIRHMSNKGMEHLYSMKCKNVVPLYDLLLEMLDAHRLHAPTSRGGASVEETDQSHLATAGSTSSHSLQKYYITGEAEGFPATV

MT-ERα [16] = assay: MT-ERα protein levels; format: cell-based

In the case of NCCC(=O)Nc1ccc(C(=O)Nc2ccc(C(=O)NCCc3ccc4ccccc4c3)cc2OCC2CCCCC2)cc1OCCO [TX-542], the “growth inhibition of ER-positive breast cancer” value [1] was “strong growth inhibition”, the “specificity for ER-positive cells” value [1] was “high specificity” and the pIC50 ([2]; MCF-7, ZR-75 or T47-D cells expressing MT-ERα, read-out: IC50, antiproliferative) was 7.30 to 7.70. For the same compound, the pIC50 ([2]; MT-ERα alone (ZR-75 and T47-D) or with WT-ERa (MCF-7), read-out: IC50 in multiple MT-ERα models) was > 7.30, the “activity against ER-null cells” value [3] was “no activity” and the “activity against non-tumorigenic breast epithelial cells” value [4] was “no activity”. For the same compound, the bound to proteins (Protein binding) was 75%, the clonogenic survival [5] was “significantly reduced the survival” and the “soft agar colony formation” value (MCF-7 MT-ERα Y537S cells) was “potently reduced soft agar colony formation”. For the same compound, the apoptotic cell death [6] was “induced apoptotic cell death”, the “spheroid size or architecture” value [7] was “disrupted spheroid architecture” and the “level in tumor tissue” value ([8]; 24 h after the last dose, daily i.p. 10 mg/kg) was > 0.1 mg/g. The “time to steady state levels in tumor” value ([8]; MCF-Y537S xenografts, daily i.p. 10 mg/kg) was 5 days, the half-life ([8]; mouse, plasma, intraperitoneal) was 8 h and the concentration at 24 h ([8]; mouse, tumor, intraperitoneal, 10 mg/kg, 24 h after the last dose, read-out: corresponding tumor concentration) was > 200 nM. The “growth of established xenografts” value ([9]; 10 mg/kg/ip) was “potent activity”, the mouse body weights ([9]; 10 mg/kg/ip) was “no effect on mouse body weights” and the “renal and liver parameters, histopathology, clinical chemistry” value ([9]; treated animals) was “lack of change in renal and liver parameters”. The “onset of effect on MT-ERα levels” value (ERα [10]) was “not noticeable until 24 h”, the ERE-driven transcription (MT-ERα [11]) was “decrease transcription” and the “MT-ERα DNA binding” value (MT-ERα [12]) was “blocks both basal and estradiol-induced MT-ERα DNA binding”. For the same compound, the “invasion of BC cells expressing MT-ERα” value [13] was “potently affects the invasion”, the “growth of lung and bone metastasis” value ([14]; 10 mg/kg/ip) was “decrease the growth of lung metastasis” and the “animals that formed mets” value ([14]; within 4 weeks, treatment started immediately after intracardiac injection) was 1/6.
With C[C@]12CC[C@@H]3c4ccc(O)cc4C[C@@H](CCCCCCCCC[S+]([O-])CCCC(F)(F)C(F)(F)F)[C@H]3[C@@H]1CC[C@@H]2O (some centres unmarked) [fulvestrant] the “soft agar colony formation” value (MCF-7 MT-ERα Y537S cells) was “significantly affected colony formation”, the “colony formation in ZR-75 MT-ERα cells” value (ZR-75 MT-ERα cells) was “activity was not seen” and the “spheroid size or architecture” value [7] was “neither ERX-11, palbociclib, GDC-0810 nor AZD-9496, tamoxifen nor fulvestrant (at 200 nM) significantly disrupted spheroid size or architecture”. For the same compound, the “time to WT-ERα degradation” value (ERα [15]) was ≤ 4 h and the “ability to decrease MT-ERα protein levels” value (MT-ERα [16]) was “neither fulvestrant nor GDC-0810 were able to decrease MT-ERα protein levels”.
